Literature values, collected in US20200357489A1, “DEEP LEARNING-BASED QUICK AND PRECISE HIGH-THROUGHPUT DRUG SCREENING SYSTEM” (Shanghai Tongji Hospital, priority 2018, published 2020).
Where two headings read alike, the source gives them in different places.

What was measured:
[1] = test system: HepG2 cells
[2] = test system: A549 cells

Structure (SMILES) | efficacy classification ([1]; 5 μg/ml Cur) | efficacy classification ([1]; 10 μg/ml Cur) | efficacy classification ([1]; 20 μg/ml Cur) | efficacy classification ([2]; 50 μg/ml VP16) | efficacy classification ([2]; 100 μg/ml VP16) | efficacy classification ([2]; 200 μg/ml VP16)
COc1cc(/C=C/C(=O)CC(=O)/C=C/c2ccc(O)c(OC)c2)ccc1O [Cur, curcumin] | Low effcacy | Moderate | High efficacy | – | – | –
COc1cc([C@@H]2c3cc4c(cc3[C@@H](O[C@@H]3O[C@@H]5CO[C@@H](C)O[C@H]5[C@H](O)[C@H]3O)[C@H]3COC(=O)[C@H]23)OCO4)cc(OC)c1O [VP16, etoposide] | – | – | – | Low effcacy | Moderate | High efficacy
